What was measured:
CCK-1 receptor = target: T1, CCK-1 receptor (Homo sapiens, UniProt P32238); test: CCK1 binding assay ([125I]-BH-CCK-8S displacement, CHO-K1 membranes); settings: membranes of CHO-K1 cells stably transfected with the CCK-1 receptor, 20 pM [125I]-BH-CCK-8S, 0.3 μM PD-134,308 present, 60 min at 21±3° C.; for Ki: read-out: CCK1 pKi (converted)
T1 construct: expressed in transfected cells; host or cells: CHO-K1
T1 sequence (P32238 1-428): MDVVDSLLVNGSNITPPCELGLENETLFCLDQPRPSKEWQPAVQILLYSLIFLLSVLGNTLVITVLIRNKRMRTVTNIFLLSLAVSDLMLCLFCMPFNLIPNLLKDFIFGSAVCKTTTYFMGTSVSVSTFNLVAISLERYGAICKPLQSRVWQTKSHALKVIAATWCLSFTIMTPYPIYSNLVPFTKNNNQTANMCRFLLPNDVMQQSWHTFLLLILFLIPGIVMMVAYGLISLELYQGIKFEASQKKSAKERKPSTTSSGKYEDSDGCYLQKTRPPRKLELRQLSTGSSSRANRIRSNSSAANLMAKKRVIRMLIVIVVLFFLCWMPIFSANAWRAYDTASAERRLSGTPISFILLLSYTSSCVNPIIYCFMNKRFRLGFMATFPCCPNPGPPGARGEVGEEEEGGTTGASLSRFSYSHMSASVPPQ
Protocol: 1. CCK1 Assay Development and Data Generation
CHO-K1 cells that had undergone stable transfection with the CCK-1 receptor were grown in DMEM supplemented with L-glutamine (2 mM), penicillin (50 units/mL) and streptomycin (50 μg/mL). Cells were cultured under continuous G418 selection (2 mM) and were harvested using a rubber cell scraper. CHO-K1 cells were sub-cultured a maximum of ten times before being reseeded from the original stocks.
Membranes were prepared from the stably transfected CHO-K1 cells. Frozen cell pellets (−40° C.) were thawed in 14 mL of buffer A (10 mM HEPES, 130 mM NaCl, 4.7 mM KCl, 5 mM MgCl, 1 mM EGTA and 15.4 mg/100 mL bacitracin at pH 7.2), adapted from Harper et al. (Br. J. Pharmacol. 1996, 118:1717-1726). The thawed pellets were homogenized using a Polytron PT-10 (7×1 s). The homogenates were centrifuged for 5 min at 1500 rpm (600×g), and the resulting pellets were discarded. The supernatants were re-centrifuged in order to collect the receptor-membrane pellets (25 min 15,000 rpm; 39,800×g), which were re-suspended in buffer A.
All assays were conducted in 96-well plates (GF/B millipore filter plates) using buffer A, with 0.3 μM PD-134,308, for the dilutions. The CCK-2 receptor ligand was included to eliminate the contribution of this receptor subtype to the binding. For the optimal cell number determination experiments 20 pM [^125I]-BH-CCK-8S (50 μL […] solution) was incubated with a range of cell concentrations ([…] to 12.5×10^5 cells/well) in a total volume of 150 μL. Total binding of [^125I]-BH-CCK-8S was determined in the presence of 15 μL of buffer A. Non-specific binding of [^125I]-BH-CCK-8S was determined in the presence of 15 μL of 100 μM 2-naphthalenesulphonyl L-aspartyl-(2-phenethyl)amide (2-NAP: see R. A. Hull et al. Br. J. Pharmacol. 1993, 108:734-740), a CCK-1 receptor selective antagonist that is structurally unrelated to the radioligand [^125I]-BH-CCK-8S. The assay preparation was incubated for 1 h at 21±3° C., and then the assay was terminated upon rapid filtration of the preparation under reduced pressure. The loaded filters were washed three times using undiluted PBS ([…]), and then the residues were transferred to 5 mL scintillation tubes. Bound radioactivity was determined using a gamma counter (count time=1 min). […] To validate the radioligand concentration and incubation time for the assay, saturation and kinetic binding studies were also conducted (see M. F. Morton, The Pharmacological Characterization of Cholecystokinin Receptors in the Human Gastrointestinal Tract. PhD Thesis, University of London, 2000). […] The assay was then terminated according to the procedure outlined above.
(§1) 3. Data Analysis for CCK1 and CCK2 Binding Assays
The pKi values were determined using the equation of Y.-C. Cheng and W. H. Prusoff (Biochem. Pharmacol., 1973, 22(23):3099-3108):
(§2) [formula] To circumvent problems associated with computer-assisted data analysis of compounds with low affinity, the data obtained in the current study were weighted according to a method described by Morton. In brief, 100% and 0% specific binding were defined independently using total binding and binding obtained in the presence of a high concentration of the reference antagonist, 2-NAP.

CCK2 receptor = target: T2, CCK2 receptor (Homo sapiens, UniProt P32239); test: CCK2 binding assay ([125I]-BH-CCK-8S displacement, HEKZFP membranes); settings: membranes of doxycycline-induced HEKZFP cells; 20 pM [125I]-BH-CCK-8S; 60 min at 21±3° C.; read-out: CCK2 pKi (converted)
T2 construct: analyzed for ZFP expression as well as CCK2R induction upon addition of doxycycline to the culture medium; endogenous in cells
T2 sequence (P32239 1-447): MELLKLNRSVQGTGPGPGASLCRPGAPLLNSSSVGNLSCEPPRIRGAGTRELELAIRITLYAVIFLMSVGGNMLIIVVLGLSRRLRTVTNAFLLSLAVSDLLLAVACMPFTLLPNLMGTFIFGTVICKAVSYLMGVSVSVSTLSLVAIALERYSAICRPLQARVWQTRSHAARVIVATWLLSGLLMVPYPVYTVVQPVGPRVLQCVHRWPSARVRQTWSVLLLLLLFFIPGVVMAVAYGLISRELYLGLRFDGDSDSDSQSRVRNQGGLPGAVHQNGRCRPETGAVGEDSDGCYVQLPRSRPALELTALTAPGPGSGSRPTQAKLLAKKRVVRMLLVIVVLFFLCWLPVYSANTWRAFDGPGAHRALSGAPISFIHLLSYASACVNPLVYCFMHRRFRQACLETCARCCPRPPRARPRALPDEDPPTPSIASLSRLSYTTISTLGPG
Protocol: 2. CCK2 Assay Development and Data Generation
Zinc Finger Proteins (ZFP) specific for the CCK2R gene were identified by Sangamo Biosciences. The ZFP domain was fused with the herpes simplex virus VP16 activation domain, and the fusion protein was subsequently cloned into the pcDNA3 mammalian expression vector (Invitrogen, San Diego, Calif.). […] After 2 weeks of selection in culture medium containing […] Zeocin (Invitrogen), sixty drug-resistant stable clones were isolated and analyzed for ZFP expression as well as CCK2R induction upon addition of doxycycline to the culture medium.
HEKZFP cells were grown in DMEM supplemented with L-glutamine (2 mM), penicillin (50 units/mL) and streptomycin (50 μg/mL) and 10% FBS (v/v).
Membranes were prepared from the HEKZFP cells after induction. […] The thawed pellets were homogenized using a Polytron PT-10 (7×1 s). The homogenates were centrifuged for 5 min at 1500 rpm (600×g), and the resulting pellets were discarded. The supernatants were re-centrifuged in order to collect the receptor-membrane pellets (25 min 15,000 rpm; 39,800×g), which were re-suspended in buffer A.
The assay preparation was incubated for 1 h at 21±3° C., and then the assay was terminated by rapid filtration of the preparation under reduced pressure. The loaded filters were washed three times using undiluted PBS (100 μL), and then 100 μL of scintillation fluid was added to the filter plate. Bound radioactivity was determined using a Topcount (Packard BioScience, Meriden, Conn.) with a count time of 1 min. […] To validate the radioligand concentration and incubation time for the assay, saturation and kinetic binding studies were also conducted (see M. F. Morton, The Pharmacological Characterization of Cholecystokinin Receptors in the Human Gastrointestinal Tract. PhD Thesis, University of London, 2000). […] The assay was then terminated according to the procedure outlined above.
as §1
The pKi values were determined using the equation of Y.-C.
as §2

| SMILES | Ki (CCK-1 receptor) [µM] | Ki (CCK2 receptor) [µM] | CCK1 pKi (CCK-1 receptor) |
| --- | --- | --- | --- |
| O=C(NC(C(=O)O)C(O)c1ccc(Cl)c(Cl)c1)c1ccc(Cl)cc1NS(=O)(=O)c1cccc2nsnc12 (mixture of isomers) [Example 19, 2-[2-(Benzo[1,2,5]thiadiazole-4-sulfonylamino)-4-chloro-benzoylamino]-3-(3,4-dichloro-phenyl)-3-hydroxy-propionic acid] | 0.2 | 0.251 |  |
| CC(CNC(=O)c1ccc(Cl)cc1NS(=O)(=O)c1cccc2nsnc12)c1ccc(Cl)cc1 (racemic) [Example 1, (±)-2-(Benzo[1,2,5]thiadiazole-4-sulfonylamino)-4-chloro-N-[2-(4-chloro-phenyl)-propyl]-benzamide] | 0.126 | 0.398 |  |
| CC(CNC(=O)c1ccc(Cl)cc1NS(=O)(=O)c1ccc(F)cc1F)c1ccc(Cl)c(Cl)c1 (racemic) [Example 10, (±)-4-Chloro-N-[2-(3,4-dichloro-phenyl)-propyl]-2-(2,4-difluorobenzenesulfonylamino)-benzamide] | 0.02 | 7.94 |  |
| Cc1ccc(C(=O)NC(CO)Cc2ccc(Cl)cc2)c(NS(=O)(=O)c2cccc3nsnc23)c1 (racemic) [Example 12, (±)-2-(Benzo[1,2,5]thiadiazole-4-sulfonylamino)-N-[2-(4-chloro-phenyl)-1-hydroxymethyl-ethyl]-4-methyl-benzamide] | 1.26 | 0.0631 |  |
| CC(CNC(=O)c1cc(Cl)ccc1NS(=O)(=O)c1cccc2nsnc12)c1ccc(Cl)c(Cl)c1 (racemic) [Example 16, (±)-2-(Benzo[1,2,5]thiadiazole-4-sulfonylamino)-5-chloro-N-[2-(3,4-dichloro-phenyl)-propyl]-benzamide] | 0.0631 | 0.631 |  |
| COC(=O)C(NC(=O)c1ccc(Cl)cc1NS(=O)(=O)c1cccc2nccnc12)C(=O)c1ccc(Cl)c(Cl)c1 (racemic) [Example 18, (±)-2-[4-Chloro-2-(quinoxaline-5-sulfonylamino)-benzoylamino]-3-(3,4-dichloro-phenyl)-3-oxo-propionic acid methyl ester] | 0.316 | 1.58 |  |
| O=C(NC(CO)Cc1ccc(Cl)cc1)c1ccc(Cl)cc1NS(=O)(=O)c1cccc2nsnc12 (racemic) [Example 52, (±)-2-(Benzo[1,2,5]thiadiazole-4-sulfonylamino)-4-chloro-N-[2-(4-chloro-phenyl)-1-hydroxymethyl-ethyl]-benzamide] | 0.501 | 0.1 |  |
| CC(Cc1ccc(Cl)cc1)NC(=O)c1ccc(Br)cc1NS(=O)(=O)c1cccc2nsnc12 (racemic) [Example 53, (±)-2-(Benzo[1,2,5]thiadiazole-4-sulfonylamino)-4-bromo-N-[2-(4-chloro-phenyl)-1-methyl-ethyl]-benzamide] | 0.126 | 2.51 |  |
| Cc1ccc(C(=O)NCC(C)c2ccc(Cl)cc2)c(NS(=O)(=O)c2cccc3nsnc23)c1 (racemic) [Example 54, (±)-2-(Benzo[1,2,5]thiadiazole-4-sulfonylamino)-N-[2-(4-chloro-phenyl)-propyl]-4-methyl-benzamide] | 0.794 | 0.316 |  |
| CC(CNC(=O)c1ccc(Cl)cc1NS(=O)(=O)c1cccc2nsnc12)c1ccc(Cl)c(Cl)c1 (racemic) [Example 57, (±)-2-(Benzo[1,2,5]thiadiazole-4-sulfonylamino)-4-chloro-N-[2-(3,4-dichloro-phenyl)-propyl]-benzamide] | 0.0126 | 0.501 |  |
| CC(CNC(=O)c1cc(Cl)c(Cl)cc1NS(=O)(=O)c1cccc2nsnc12)c1ccc(Cl)c(Cl)c1 (racemic) [Example 58, (±)-2-(Benzo[1,2,5]thiadiazole-4-sulfonylamino)-4,5-dichloro-N-[2-(3,4-dichloro-phenyl)-propyl]-benzamide] | 0.0316 | 0.501 |  |
| O=C(N[C@H](Cc1ccc(Cl)c(Cl)c1)C(=O)O)c1ccc(Cl)cc1NS(=O)(=O)c1cccc2nsnc12 [Example 118, (R)-2-[2-(Benzo[1,2,5]thiadiazole-4-sulfonylamino)-4-chloro-benzoylamino]-3-(3,4-dichloro-phenyl)-propionic acid] |  |  | 7.1 |

— patent US7855292B2, “Sulfonamide compounds” (Janssen Pharmaceutica NV, priority 2004, dated 2010)
